Measurements from patent US20110045101A1, “FUNGICIDAL SUBSTITUTED AZOLES” (E.I. Du Pont De Nemours and Company, priority 2009, published 2011).
Marks after values point to notes of the source that are not given here.

Assays:
Format in all cases: in vivo
Botrytis cinerea = assay: Test C: tomato Botrytis on tomato seedlings, sprayed the day before inoculation, visual disease rating; settings: 100 = 100% disease control; for pest or weed control at 200 ppm: Botrytis cinerea, 120 h
Summary of the method: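 Each compound is first taken up in acetone at 3% of the final volume and then brought to the desired ppm in a 50:50 acetone–water mix with 250 ppm surfactant (polyhydric alcohol esters). Tomato seedlings receive the suspension to run-off, normally at 200 ppm, occasionally 40 ppm.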

Alternaria solani = assay: Test D: tomato early blight, sprayed the day before inoculation, visual disease rating; settings: 100 = 100% disease control; for pest or weed control at 200 ppm: Alternaria solani, 168 h
Summary of the method: (§1)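 Test rate was 200 ppm, sprayed to run-off and equal to 500 g/ha, or 40 ppm where marked. The compound was first taken up in acetone at 3% of final volume and suspended in acetone/purified water (50/50) containing 250 ppm Trem® 014.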

Septoria nodorum = assay: Test F: wheat glume blotch on wheat seedlings, sprayed the day before inoculation, visual disease rating; settings: 100 = 100% disease control; for pest or weed control at 200 ppm: Parastagonospora nodorum, 264 h
Summary of the method: as §1

Septoria tritici = assay: Test G: wheat leaf blotch on wheat seedlings, sprayed the day before inoculation, visual disease rating; settings: 100 = 100% disease control; for pest or weed control at 200 ppm: Zymoseptoria tritici, 504 h
Summary of the method: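 Disease was rated visually after Septoria tritici inoculation, 48 h saturated incubation at 24°C and 19 days in a 20°C growth chamber. Inoculation followed one day after run-off spraying of seedlings with compound at 200 ppm (≈500 g/ha) or, where marked, 40 ppm, formulated in acetone/water with surfactant.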

[1] = system: Puccinia recondita f. sp. tritici; assay: Test H: wheat leaf rust, test suspension sprayed after inoculation of wheat seedlings, visual disease rating; settings: 100 = 100% disease control; for pest or weed control at 200 ppm: Puccinia recondita, 96 h
Summary of the method: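 Wheat seedlings inoculated with P. recondita spores, held 24 h saturated at 20 °C, then 2 days in growth chamber at 20 °C; compound suspension (acetone/water with Trem 014) sprayed to run-off afterwards. Rated visually; 200 ppm (≈500 g/ha) unless marked *, which denotes 40 ppm.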

[2] = system: Puccinia recondita f. sp. tritici; assay: Test I: wheat leaf rust on wheat seedlings, sprayed the day before inoculation, visual disease rating; settings: 100 = 100% disease control; for pest or weed control at 200 ppm: Puccinia recondita, 168 h
Summary of the method: as §1

[3] = system: Erysiphe graminis f. sp. tritici; assay: Test J: wheat powdery mildew on wheat seedlings, sprayed the day before inoculation, visual disease rating; settings: 100 = 100% disease control; for pest or weed control at 200 ppm: Blumeria graminis, 168 h
Summary of the method: as §1

[4] = 200 ppm, 0 = no control relative to controls
[5] = 40 ppm (marked *), 0 = no control

Cc1ncn(-c2ccc(Cl)c(F)c2)c1-c1ccnc(F)c1 [compound 319]
Test C disease control rating (Botrytis cinerea; [4]): 99%
Test D disease control rating (Alternaria solani; [4]): 24%
Test F disease control rating (Septoria nodorum; [4]): 0%
Test G disease control rating (Septoria tritici; [4]): 98%
Test H disease control rating [1, 4]: 6%
Test I disease control rating [2, 4]: 28%
Test J disease control rating [3, 4]: 81%

Cc1nc(Cl)c(-c2c(F)cc(F)cc2F)n1-c1cccc(F)c1 [compound 370]
Test C disease control rating (Botrytis cinerea; [4]): 99%
Test D disease control rating (Alternaria solani; [4]): 100%
Test F disease control rating (Septoria nodorum; [4]): 87%
Test G disease control rating (Septoria tritici; [4]): 89%
Test H disease control rating [1, 4]: 100%
Test I disease control rating [2, 4]: 100%
Test J disease control rating [3, 4]: 100%

COc1cc(F)c(-c2c(Cl)nc(Br)n2-c2ccccc2)c(F)c1Br [compound 429]
Test C disease control rating (Botrytis cinerea; [4]): 99%
Test D disease control rating (Alternaria solani; [4]): 77%
Test F disease control rating (Septoria nodorum; [4]): 0%
Test G disease control rating (Septoria tritici; [4]): 99%
Test H disease control rating [1, 4]: 0%
Test I disease control rating [2, 4]: 98%
Test J disease control rating [3, 4]: 98%

N#Cc1ccc(F)c(-c2c(Cl)ncn2-c2ccc(Cl)cc2)c1F [Compound 386, 3-[4-chloro-1-(4-chlorophenyl)-1H-imidazol-5-yl]-2,4-difluorobenzonitrile]
pest or weed control at 200 ppm (Botrytis cinerea; [4]): 99%
pest or weed control at 200 ppm (Alternaria solani; [4]): 100%
pest or weed control at 200 ppm (Septoria nodorum; [4]): 0%
pest or weed control at 200 ppm (Septoria tritici; [4]): 96%
pest or weed control at 200 ppm [1, 4]: 0%
pest or weed control at 200 ppm [2, 4]: 98%
pest or weed control at 200 ppm [3, 4]: 95%

COc1ccc(F)c(-c2c(Br)nc(Br)n2-c2ccc(C)cc2)c1F [compound 511]
Test C disease control rating (Botrytis cinerea; [4]): 99%
Test D disease control rating (Alternaria solani; [4]): 99%
Test F disease control rating (Septoria nodorum; [4]): 99%
Test G disease control rating (Septoria tritici; [4]): 99%
Test H disease control rating [1, 4]: 0%
Test I disease control rating [2, 4]: 99%
Test J disease control rating [3, 4]: 100%

CCc1cccc(-n2c(C)nc(Cl)c2-c2c(F)ccc(OC)c2F)c1 [compound 418]
Test C disease control rating (Botrytis cinerea; [4]): 100%
Test D disease control rating (Alternaria solani; [4]): 100%
Test F disease control rating (Septoria nodorum; [4]): 99%
Test G disease control rating (Septoria tritici; [4]): 100%
Test H disease control rating [1, 4]: 0%
Test I disease control rating [2, 4]: 97%
Test J disease control rating [3, 4]: 100%

Cc1ncn(-c2ccc(Cl)cn2)c1-c1c(F)cccc1F [compound 320]
Test C disease control rating (Botrytis cinerea; [4]): 99%
Test D disease control rating (Alternaria solani; [4]): 67%
Test F disease control rating (Septoria nodorum; [4]): 0%
Test G disease control rating (Septoria tritici; [4]): 100%
Test H disease control rating [1, 4]: 0%
Test I disease control rating [2, 4]: 28%
Test J disease control rating [3, 4]: 99%

COc1cc(F)c(-n2c(Br)nc(C)c2-c2cccc(F)c2)c(F)c1 [compound 687]
Test C disease control rating (Botrytis cinerea; 40 ppm (marked *)): 100* %
Test D disease control rating (Alternaria solani; 40 ppm (marked *)): 100* %
Test F disease control rating (Septoria nodorum; 40 ppm (marked *)): 99* %
Test G disease control rating (Septoria tritici; 40 ppm (marked *)): 98* %
Test H disease control rating ([1]; 40 ppm (marked *)): 100* %
Test I disease control rating ([2]; 40 ppm (marked *)): 100* %
Test J disease control rating ([3]; 40 ppm (marked *)): 100* %

COc1cc(F)c(-c2c(Cl)nc(C)n2-c2cccc(OC(F)(F)F)c2)c(F)c1 [compound 589]
Test C disease control rating (Botrytis cinerea; [4]): 100%
Test D disease control rating (Alternaria solani; [4]): 99%
Test F disease control rating (Septoria nodorum; [4]): 98%
Test G disease control rating (Septoria tritici; [4]): 98%
Test H disease control rating [1, 4]: 97%
Test I disease control rating [2, 4]: 100%
Test J disease control rating [3, 4]: 100%

COc1ccc(F)c(-c2c(C)nc(C)n2-c2ccc(F)cc2)c1F [Compound 549, 5-(2,6-difluoro-3-methoxyphenyl)-1-(4-fluorophenyl)-2,4-dimethyl-1H-imidazole]
pest or weed control at 200 ppm (Botrytis cinerea; [4]): 100%
pest or weed control at 200 ppm (Alternaria solani; [4]): 100%
pest or weed control at 200 ppm (Septoria nodorum; [4]): 99%
pest or weed control at 200 ppm (Septoria tritici; [4]): 98%
pest or weed control at 200 ppm [1, 4]: 0%
pest or weed control at 200 ppm [2, 4]: 100%
pest or weed control at 200 ppm [3, 4]: 100%

COc1cc(F)c(-c2c(Cl)nc(Cl)n2-c2ccc(C)cc2F)c(F)c1 [compound 653]
Test C disease control rating (Botrytis cinerea; 40 ppm (marked *)): 99* %
Test D disease control rating (Alternaria solani; 40 ppm (marked *)): 99* %
Test F disease control rating (Septoria nodorum; 40 ppm (marked *)): 78* %
Test G disease control rating (Septoria tritici; 40 ppm (marked *)): 100* %
Test H disease control rating ([1]; 40 ppm (marked *)): 99* %
Test I disease control rating ([2]; 40 ppm (marked *)): 100* %
Test J disease control rating ([3]; 40 ppm (marked *)): 99* %

COc1cc(F)c(-c2c(Br)nnn2-c2ccc(Cl)cc2)c(F)c1 [compound 627]
Test C disease control rating (Botrytis cinerea; [4]): 99%
Test D disease control rating (Alternaria solani; [4]): 99%
Test F disease control rating (Septoria nodorum; [4]): 0%
Test G disease control rating (Septoria tritici; [4]): 99%
Test H disease control rating [1, 4]: 40%
Test I disease control rating [2, 4]: 95%
Test J disease control rating [3, 4]: 98%

Cc1ccc(-n2c(C)nc(C)c2-c2c(F)ccc(F)c2F)cc1 [compound 490]
Test C disease control rating (Botrytis cinerea; 40 ppm (marked *)): 97* %
Test D disease control rating (Alternaria solani; 40 ppm (marked *)): 99* %
Test F disease control rating (Septoria nodorum; 40 ppm (marked *)): 0* %
Test G disease control rating (Septoria tritici; 40 ppm (marked *)): 87* %
Test H disease control rating ([1]; 40 ppm (marked *)): 0* %
Test I disease control rating ([2]; 40 ppm (marked *)): 76* %
Test J disease control rating ([3]; 40 ppm (marked *)): 100* %

Cc1nc(Cl)n(-c2ccc(Cl)cc2)c1-c1c(F)ccc(F)c1F [compound 412]
Test C disease control rating (Botrytis cinerea; [5]): 100* %
Test D disease control rating (Alternaria solani; [5]): 100* %
Test F disease control rating (Septoria nodorum; [5]): 0* %
Test G disease control rating (Septoria tritici; [5]): 99* %
Test H disease control rating [1, 5]: 0* %
Test I disease control rating [2, 5]: 74* %
Test J disease control rating [3, 5]: 99* %

COc1cc(F)c(-c2c(Cl)ncn2-c2cccc(OC(F)F)c2)c(F)c1 [compound 556]
Test C disease control rating (Botrytis cinerea; [4]): 100%
Test D disease control rating (Alternaria solani; [4]): 99%
Test F disease control rating (Septoria nodorum; [4]): 98%
Test G disease control rating (Septoria tritici; [4]): 95%
Test H disease control rating [1, 4]: 87%
Test I disease control rating [2, 4]: 100%
Test J disease control rating [3, 4]: 97%

Cc1nc(Cl)n(-c2ccc(Cl)c(F)c2)c1-c1scnc1Cl [compound 380]
Test C disease control rating (Botrytis cinerea; [4]): 100%
Test D disease control rating (Alternaria solani; [4]): 91%
Test F disease control rating (Septoria nodorum; [4]): 0%
Test G disease control rating (Septoria tritici; [4]): 91%
Test H disease control rating [1, 4]: 0%
Test I disease control rating [2, 4]: 99%
Test J disease control rating [3, 4]: 99%

Cc1nc(Cl)n(-c2ccc(Cl)c(F)c2)c1-c1ccnc(Br)c1 [compound 354]
Test C disease control rating (Botrytis cinerea; [4]): 100%
Test D disease control rating (Alternaria solani; [4]): 99%
Test F disease control rating (Septoria nodorum; [4]): 0%
Test G disease control rating (Septoria tritici; [4]): 93%
Test H disease control rating [1, 4]: 0%
Test I disease control rating [2, 4]: 98%
Test J disease control rating [3, 4]: 97%

COc1cc(F)c(-c2c(Cl)nc(Br)n2Cc2ccc(Cl)cc2)c(F)c1 [compound 283]
Test C disease control rating (Botrytis cinerea; 200 ppm, 0 = no control): 100%
Test D disease control rating (Alternaria solani; 200 ppm, 0 = no control): 98%
Test F disease control rating (Septoria nodorum; 200 ppm, 0 = no control): 0%
Test G disease control rating (Septoria tritici; 200 ppm, 0 = no control): 93%
Test H disease control rating ([1]; 200 ppm, 0 = no control): 0%
Test I disease control rating ([2]; 200 ppm, 0 = no control): 93%
Test J disease control rating ([3]; 200 ppm, 0 = no control): 99%
